Laboratory results from publication PMC12596500, “Affinity-selected peptide ligands specifically bind i-motif DNA and modulate c-Myc gene expression” (Nucleic Acids Research, 2025).
Peptide text beside a SMILES is read from it.

Experiments:
Format in all cases: binding
[1] = test system: c-MycG27; test: CD melting of c-MycG27; conditions: 10 µM DNA; for TM c-MycG27: 10 mM NaCaco pH 6.6, 10 molar eqv. peptide, mean ± SEM (n=4); for effect on c-MycG27 thermal stability, in words: pH 6.6, 10 molar equivalents peptide
Procedure: (§1) Circular Dichroism (CD) melting experiments were performed in a Jasco J-1500 spectropolarimeter with 10 µM DNA samples in 10 mM sodium cacodylate buffer at pH 6.6 using a 1 mm path length quartz cuvette. […] The samples were kept at 5°C for 5 min before starting the melt, with a temperature increase of 1°C/min, a 0.5°C data interval, and a 60-s holding time at each target temperature. Four scans were accumulated data pitch of 0.5 nm, a scanning speed of 200 nm/min, 1 s response time, 2 nm bandwidth, and 200 mdeg sensitivity. Furthermore, two CD melting experiment repeats were performed recording C-rich c-Myc at 288 and 320 nm, G-rich c-Myc at 264 and 320 nm, and dsDNA at 253 and 320 nm with the settings as described for full spectrum measurements. Data were zero corrected to 320 nm and baseline drift. The melting temperature (TM) was concluded using the Boltzmann or biphasic fitting curve on the folded fraction data using GraphPad Prism version 10.1.2. Data were processed as mean ± SEM (n = 4) and one-way ANOVA followed by Bonferroni post-hoc test to determine significant changes between peptides and controls.

[2] = test system: dsDNA (DS); test: CD melting of double-stranded DNA; conditions: for TM DS / ΔTM DS: 10 µM DNA, SEM; for TM DS / effect on dsDNA melting compared to the solvent controls, in words: 10 mM NaCaco pH 6.6, 10 molar eqv. peptide; for TM DS: mean ± SEM (n=4); for ΔTM DS: 10 mM sodium cacodylate pH 6.6, 10 molar equivalents peptide vs DMSO, mean ± SEM (n = 4); for effect on dsDNA melting compared to the solvent controls, in words: 10 µM DS
Procedure: as §1

[3] = target: dsDNA; test: UV titration, dsDNA; set-up: key to Kd dsDNA, 100 mM KCl: Binding classified as non-specific (NS) showed no consistent or concentration-dependent pattern, under the tested conditions; key to Kd dsDNA: NS = non-specific binding indicates where no significant pattern of binding was observed at the concentration range of the experiment; conditions: for Kd dsDNA: UV titration at 350 nm, 10 µM peptide, 10 mM sodium cacodylate pH 6.6, no KCl; for Kd dsDNA, 100 mM KCl: UV titration, 10 mM sodium cacodylate 100 mM potassium chloride pH 6.6, two experiments
Procedure: (§2) UV titrations were recorded using an Agilent Cary-60 UV/VIS spectrometer with a 10 mm path length black-walled quartz cuvette. Oligonucleotides (c-MycC27, c-MycC52, c-MycG27, c-MycG52, DAPc, DAPg, and dsDNA; sequences listed in Supplementary Table S1) were annealed as 250 µM stock solutions in 10 mM sodium cacodylate buffer (pH 6.6) in the presence or absence of 100 mM KCl. Spectra were recorded at room temperature over a wavelength range of 300–500 nm with 1 nm intervals. Buffer-only spectra were recorded and subtracted from each dataset as blanks. Peptide ligands were prepared as 1 mM stock solutions in DMSO and added to the cuvette at a final concentration of 10 µM in buffer prior to DNA addition. DNA stock was diluted to 50 µM in buffer and was added stepwise to the peptide solution to reach 2.5 µM final concentration, followed by additions from the 250 µM DNA stock to reach final DNA concentrations of 30 or 50 µM. The absorbance at 350 nm was monitored and plotted against DNA concentration. Binding curves were fitted using a one-site binding model in GraphPad Prism version 10.1.2, and Kd values were determined from normalized data to represent the DNA-ligand bound fraction.
(§3) Despite the demonstrable importance of the extended five-tract C-rich sequence within the c-Myc promoter, most studies looking at ligand binding use the shorter sequences. […] Although the iM-targeting antibody is specific for iM as a structure, it also binds multiple types of iM-structures.

[4] = test system: c-MycC52 iM; test: Fluorescent indicator displacement (FID) assay with Thiazole Orange; conditions: 1 µM c-MycC52, 2 µM TO, 10 mM sodium cacodylate pH 6.6, peptides 25-200 µM, n = 3
Procedure: Fluorescent indicator displacement (FID) experiments used in this publication are based on the first FID assay developed for iM DNA [35]. The FID experiments were performed on a BMG CLARIOstar plate reader using 96-well, solid black flat-bottom plates. Thiazole Orange (TO) was the indicator, and the stock solution was prepared at 10 mM in DMSO. The TO stock was diluted into the appropriate buffer to 2 µM. Each well received 9 µl of the 2 µM TO solution, was excited at 430 nm, and fluorescence emission at 450 nm was measured; this was normalized to 0% to account for background fluorescence. One microlitre of […] DNA was added to each well and shaken in the plate reader for 30 s using double orbital shaking at 700 rpm and left for 10 min to equilibrate. Following equilibration, fluorescence emission was measured and normalized to 100% representing maximum fluorescence. Peptides were titrated starting at 25 µM, with 0.9 µl additions into each well in triplicate, until a final concentration of 200 µM was reached, and fluorescence emission was measured after each addition. Fluorescence emission for each well was normalized between 0% and 100%, which was taken away from 100 to give the percentage of displacement. The data were analyzed in Origin data analysis software and fitted with a hyperbolic dose–response curve from which the DC50 value was interpolated.
The relative binding of the five peptide ligands to the folded c-MycC52 iM was assessed via a FID assay using TO (Fig. 1). These experiments were performed in 10 mM sodium cacodylate at pH 6.6, the transitional pH of the c-Myc iM-forming sequence. As iM-formation is reduced at higher pH and higher ionic strength, additional stabilizing cations were avoided to allow the highest proportion of iM formation at the highest pH, to represent as close to physiological pH conditions as possible.
Figure 1. Concentration-dependent interaction of peptides with c-MycC52 iM determined via FID assay. The assay was performed with 1 µM c-MycC52 in 10 mM sodium cacodylate, pH 6.6, in the presence of 2 µM TO. Peptide ligands were added in increments of 25 µM up to a final concentration of 200 µM. Data are presented as mean ± SD (n = 3) and fitted using a Hill-Slope dose–response curve.

[5] = target: DAPg; test: UV titration, DAPg; set-up: key to Kd DAPg, 100 mM KCl: Binding classified as non-specific (NS) showed no consistent or concentration-dependent pattern, under the tested conditions; key to Kd DAPg: NS = non-specific binding indicates where no significant pattern of binding was observed at the concentration range of the experiment; conditions: for Kd DAPg: UV titration at 350 nm, 10 µM peptide, 10 mM sodium cacodylate pH 6.6, no KCl; for Kd DAPg, 100 mM KCl: UV titration, 10 mM sodium cacodylate 100 mM potassium chloride pH 6.6, two experiments
Procedure: as §2, §3

## CC(=O)N[C@H](C(=O)N[C@@H](CO)C(=O)N[C@@H](CCC(=O)O)C(=O)N[C@@H](C)C(=O)N[C@@H](Cc1c[nH]c2ccccc12)C(=O)N[C@@H](CCCCN)C(=O)N[C@@H](CCC(=O)O)C(=O)N[C@H](C(=O)N[C@@H](CCCCN)C(=O)NCC(=O)N[C@@H](Cc1ccccc1)C(=O)N[C@@H](Cc1ccccc1)C(N)=O)C(C)C)C(C)C [Pep-VSE] (Ac-VSEAWKEVKGFF-NH2)
[1]; SEM
  TM c-MycG27: 48 ± 1.0 °C
[1]
  effect on c-MycG27 thermal stability, in words: neither stabilized nor destabilized
[2]
  TM DS: 51 ± 0.8 °C
  ΔTM DS: 0 ± 0.8 °C
  effect on dsDNA melting compared to the solvent controls, in words: no effect on dsDNA melting
[3]
  Kd dsDNA: NS
  Kd dsDNA, 100 mM KCl: NS
[4]
  relative binding affinity ranking (TO displacement): SLC > PTN > VSE > EIE > RVS
[5]
  Kd DAPg: NS
  Kd DAPg, 100 mM KCl: NS

## CC(=O)N1CCC[C@H]1C(=O)N[C@H](C(=O)N[C@@H](CC(N)=O)C(=O)N[C@H](C(=O)N[C@@H](CO)C(=O)NCC(=O)N[C@@H](CCCNC(=N)N)C(=O)N[C@@H](CC(N)=O)C(=O)N[C@@H](Cc1ccc(O)cc1)C(=O)N[C@@H](CC(C)C)C(=O)N[C@@H](Cc1ccccc1)C(=O)N[C@@H](CS)C(N)=O)C(C)C)[C@@H](C)O [Pep-PTN] (Ac-PTNVSGRNYLFC-NH2)
[1]; SEM
  TM c-MycG27: 50 ± 1.0 °C
[1]; 10 mM sodium cacodylate pH 6.6, 10 molar equivalents peptide vs DMSO, mean ± SEM (n = 4), SEM
  ΔTM c-MycG27: −1 ± 0.5 °C
[1]
  effect on c-MycG27 thermal stability, in words: neither stabilized nor destabilized
[2]
  TM DS: 52 ± 1.0 °C
  ΔTM DS: 0 ± 0.6 °C
  effect on dsDNA melting compared to the solvent controls, in words: no effect on dsDNA melting
[3]
  Kd dsDNA: NS
  Kd dsDNA, 100 mM KCl: NS
[4]
  relative binding affinity ranking (TO displacement): SLC > PTN > VSE > EIE > RVS
[5]
  Kd DAPg: NS
  Kd DAPg, 100 mM KCl: NS
